The results in this text go back to PMC9257625 (RSC Chemical Biology, 2022).

Each structure is given as a SMILES string. Positions of bridges follow the written chain, without caps; N, C: chain ends. Non-standard residues stand in square brackets, D forms with d. Residues, ends and D or L forms follow the SMILES beside them. S5 = C=CCCC[C@](C)(N)C(=O)O

Data set [1] can be described thus: Circular dichroism spectroscopy, percent helicity. In kind it is physicochemical. Conditions: CD θ220, 10 mM phosphate buffer pH 7.4, 50 μM peptide.
The target of a further data set is pepsin (Sus scrofa, UniProt P00791). The data set is described as follows: Protease stability assay, pepsin. In kind it is in vitro ADME, porcine. Conditions: acidic pH.
The target in a further data set is proteinase K (Parengyodontium album, UniProt P06873). The data set is described as follows: Protease stability assay, proteinase K. In kind it is in vitro ADME, fungal.
Sequence of proteinase K (P06873 106-384): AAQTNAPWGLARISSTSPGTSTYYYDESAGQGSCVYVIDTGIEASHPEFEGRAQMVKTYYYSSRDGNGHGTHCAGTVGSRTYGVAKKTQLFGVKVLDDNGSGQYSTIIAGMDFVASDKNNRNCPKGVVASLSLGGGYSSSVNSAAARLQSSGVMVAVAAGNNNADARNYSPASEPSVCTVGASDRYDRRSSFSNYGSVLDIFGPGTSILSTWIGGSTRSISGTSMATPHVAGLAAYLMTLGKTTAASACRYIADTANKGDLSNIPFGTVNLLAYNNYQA

Sequence of pepsin (P00791 60-385): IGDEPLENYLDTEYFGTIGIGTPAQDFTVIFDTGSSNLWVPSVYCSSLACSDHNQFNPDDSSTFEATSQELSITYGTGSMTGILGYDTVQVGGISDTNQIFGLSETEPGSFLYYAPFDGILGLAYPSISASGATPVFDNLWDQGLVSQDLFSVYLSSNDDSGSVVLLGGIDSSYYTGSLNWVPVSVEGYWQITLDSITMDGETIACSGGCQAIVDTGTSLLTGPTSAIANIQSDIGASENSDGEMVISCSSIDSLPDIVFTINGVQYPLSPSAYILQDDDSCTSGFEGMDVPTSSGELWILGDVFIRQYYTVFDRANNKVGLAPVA

The molecule `CC(=O)N[C@@H](CC(C)C)C(=O)N[C@H](C(=O)N[C@@H](Cc1ccccc1)C(=O)N[C@@]1(C)CCCC=CCCC[C@@](C)(C(=O)N[C@@H](CCC(N)=O)C(=O)N[C@@H](CC(C)C)C(=O)N[C@H](C(=O)N[C@@H](CO)C(N)=O)[C@@H](C)O)NC(=O)[C@H](Cc2c[nH]c3ccccc23)NC(=O)[C@H](Cc2ccc(O)cc2)NC(=O)[C@H](CCC(=O)O)NC1=O)[C@@H](C)O` [Peptide 2a] (Ac-LTF[S5]EYW[S5]QLTS-NH2; staple 4-8) registered a Percent helicity in data set [1] of about 60%.
In the case of `CC(=O)N[C@@H](CC(C)C)C(=O)N[C@H](C(=O)N[C@@H](Cc1ccccc1)C(=O)N[C@H]1CCCn2cc(nn2)-c2cccc(c2)-c2cn(nn2)CCC[C@@H](C(=O)N[C@@H](CO)C(N)=O)NC(=O)[C@H](CC(C)C)NC(=O)[C@H](CCC(N)=O)NC(=O)[C@H](C)NC(=O)[C@H](Cc2c[nH]c3ccccc23)NC(=O)[C@H](Cc2ccc(O)cc2)NC(=O)[C@H](CCC(=O)O)NC1=O)[C@@H](C)O` [Peptide 4a], the “Cleavage by pepsin (in words)” value on pepsin is “completely cleaved”. The same molecule displayed a Percent helicity in data set [1] of 27%. Also, the “Cleavage by / resistance to proteinase K (in words)” value at proteinase K was “partially vulnerable to cleavage”.
